Laboratory results as given in article PMC13184981, “Discovery and Development of a Potent LIMK2 Isoform-Specific Degrader” (ACS Chemical Biology, 2026).

Columns and labels:
VHL:ELOB:ELOC = VHL:ELOB:ELOC (Homo sapiens, UniProt P40337); assay: SPR VHL binary complex affinity and kinetics; format: binding; conditions: read-out: binary affinity toward VHL
Protocol: (§1) Approximately 1000 RU of biotinylated VHL:ELOB:ELOC was loaded onto a Series S CM5 chip coated with Streptavidin. All experiments were performed at 25 °C. The chip was equilibrated with a running buffer containing 20 mM HEPES, pH 7.4, 150 mM NaCl, 0.5 mM TCEP, 1% BSA, and 0.05% Tween 20.
To assess ternary complex formation, 1 μM of VHL-binding PROTAC was preincubated with a 2-fold molar excess of LIMK1 to promote binary complex formation and minimize the hook effect. The resulting binary complex was injected over the immobilized VHL:ELOB:ELOC surface at a flow rate of 30 μL/min for 60 s, followed by a dissociation phase of 180 s. An increase in resonance signal relative to the binary complex alone was used as an indicator of ternary complex formation. In separate experiments, binary and ternary complex affinities were measured and compared using serial dilutions as described for LIMK1. Additionally, the association rate constant (k a), dissociation rate constant (k d) were determined for the binary complexes.

[1] = molecular target: T1, VHL:ELOB:ELOC and LIMK1 kinase domain (Homo sapiens, UniProt P40337+P53667); assay: SPR VHL ternary complex formation with LIMK1; format: binding
T1 construct: (330–S637), LIMK1-avi; 6xHis-Z-tag (TEV-cleavable) (N, cleaved yes); made in house; host or cells: LIMK1: insect cells (baculovirus)
T1 sequence (P40337 54-213 limits assumed, species assumed): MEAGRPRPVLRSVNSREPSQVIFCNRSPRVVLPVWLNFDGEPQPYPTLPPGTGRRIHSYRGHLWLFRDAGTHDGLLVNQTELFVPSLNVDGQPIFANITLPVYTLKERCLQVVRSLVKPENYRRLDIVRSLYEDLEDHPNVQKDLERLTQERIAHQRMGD
T1 sequence (Q15370 whole entry partner, species assumed, the tested form may be a part): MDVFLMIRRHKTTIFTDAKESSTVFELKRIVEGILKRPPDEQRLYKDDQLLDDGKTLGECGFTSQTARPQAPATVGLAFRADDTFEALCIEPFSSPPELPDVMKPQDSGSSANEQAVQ
T1 sequence (Q15369 17-112 partner limits assumed, species assumed): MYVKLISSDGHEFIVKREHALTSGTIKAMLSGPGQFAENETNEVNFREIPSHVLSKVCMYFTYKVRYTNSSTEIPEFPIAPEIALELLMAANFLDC
T1 sequence (P53667 330-637 limits assumed, species assumed): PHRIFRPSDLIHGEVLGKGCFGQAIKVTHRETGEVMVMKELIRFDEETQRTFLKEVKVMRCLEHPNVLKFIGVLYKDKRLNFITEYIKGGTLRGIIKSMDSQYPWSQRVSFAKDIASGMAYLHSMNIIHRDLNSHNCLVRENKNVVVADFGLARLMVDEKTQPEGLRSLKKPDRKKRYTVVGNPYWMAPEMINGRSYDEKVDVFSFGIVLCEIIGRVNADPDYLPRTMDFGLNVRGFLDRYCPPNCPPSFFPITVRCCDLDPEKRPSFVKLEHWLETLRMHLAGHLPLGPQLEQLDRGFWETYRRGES
Protocol: Surprised by the weak target engagement of VHL-based LIMK PROTACs, we investigated whether they form a stable ternary complex. To address this, we established an SPR-based ternary complex assay using immobilized VHL:ELOB/C complex on an SPR chip. In this assay format, the binary complex was formed by preincubating PROTACs with a 2-fold excess of purified LIMK1 kinase domain to avoid the hook effect. The binary complex was passed over an SPR surface immobilized with the VHL:ELOB/C complex. Ternary complex formation was detected as a large signal increase, as expected for the large molecular weight increase upon binding of the LIMK1 PROTAC complex (Figure C).
as §1
To assess ternary complex formation, 1 μM of VHL-binding PROTAC was preincubated with a 2-fold molar excess of LIMK1 to promote binary complex formation and minimize the hook effect. […] In separate experiments, binary and ternary complex affinities were measured and compared using serial dilutions as described for LIMK1. Additionally, the association rate constant (k a), dissociation rate constant (k d) were determined for the binary complexes.

LIMK2 [2] = molecular target: T2, LIMK2 (Homo sapiens, UniProt P53671); assay: NanoBRET cellular target engagement, LIMK2; format: cell-based; design: host or cells: HEK293T; conditions: HEK293T cells, Tracer K10, 2 h; read-out: LIMK2 NanoBRET IC50
T2 sequence (P53671 whole entry): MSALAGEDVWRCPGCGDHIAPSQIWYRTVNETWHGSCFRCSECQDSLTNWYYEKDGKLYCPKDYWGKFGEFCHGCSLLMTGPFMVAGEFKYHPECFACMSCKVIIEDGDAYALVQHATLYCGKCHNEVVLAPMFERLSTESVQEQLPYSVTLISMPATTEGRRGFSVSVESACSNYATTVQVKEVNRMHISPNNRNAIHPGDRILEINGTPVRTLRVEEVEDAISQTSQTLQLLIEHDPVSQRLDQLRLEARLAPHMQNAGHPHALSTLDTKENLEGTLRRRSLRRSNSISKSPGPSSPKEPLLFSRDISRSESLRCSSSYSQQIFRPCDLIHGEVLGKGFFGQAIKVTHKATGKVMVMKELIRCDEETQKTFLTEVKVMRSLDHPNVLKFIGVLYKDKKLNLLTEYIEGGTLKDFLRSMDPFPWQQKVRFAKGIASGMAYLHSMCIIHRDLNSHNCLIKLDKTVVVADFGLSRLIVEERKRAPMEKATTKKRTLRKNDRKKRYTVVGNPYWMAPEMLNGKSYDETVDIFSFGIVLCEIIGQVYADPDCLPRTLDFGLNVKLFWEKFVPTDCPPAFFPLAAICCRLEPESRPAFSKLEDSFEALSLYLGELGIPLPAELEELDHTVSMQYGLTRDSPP
Protocol: Gene encoding LIMK1 (Promega, NV3391) and LIMK2 (Promega, NV1531), CRBN (Promega, N2741) proteins cloned in frame with NanoLuc fusion tag at the C-terminus, were transfected into HEK293T cells using FuGENE HD (Promega, E2312) following manufacture’s protocol and proteins were allowed to express for 20 h at 37 °C and 5% CO2. […] The 10 μL of transfected cells after trypsinization and resuspending in Opti-MEM (Life Technologies, 31985070) were dispensed into each well of the 384-well plate (Greiner 781207) at a cell density of 2 × 10^5 cells/mL. For dose–response BRET measurements, compounds at various concentrations, immediately followed by Tracer K10 (Promega, Tracer DB ID: T000008) for LIMK1 and LIMK2, CRBN Tracer (Promega, Tracer DB ID: T000018) for CRBN at an optimum KD concentration chosen from TracerDB (tracerdb.org), were pipetted using an Echo acoustic dispenser (Labcyte). The system was allowed to equilibrate for 2 h at 37 °C and 5% CO2 before BRET measurements. To measure BRET signal, the NanoBRET NanoGlo Substrate (Promega, N1573) was added as per the manufacturer’s protocol, and filtered luminescence was measured on a PHERAstar plate reader (BMG Labtech) equipped with a luminescence filter pair (450 nm BP filter (donor) and 610 nm LP filter (acceptor)). For lysed NanoBRET measurement, 25 nL of Digitonin (0.05 μg/μL) was pipetted to each well using Labcyte, and the plate was incubated for 5 min at 37 °C and 5% CO2. After incubation, the BRET signals were measured by a PHERAstar plate reader following the same procedure as intact NanoBRET measurement. […] The BRET ratios are normalized to both of them in the prism output data file. Competitive displacement data were then normalized to controls and were graphed using GraphPad Prism 9 software employing a normalized 3-parameter curve fit with the following equation: Y = 100/(1 + 10̂(X – logIC50)).

EGFP–LIMK2 = molecular target: T3, EGFP–LIMK2 (Homo sapiens, UniProt P53671); assay: EGFP-LIMK2 depletion live-cell assay (Incucyte); format: cell-based; conditions: for EGFP–LIMK2 degradation (in words): live cells, over 72 h
T3 construct: P2A remnant (from EGFP-LIMK2-P2A-mCherry; that residues stay on LIMK2 after self-cleavage is own knowledge) (C); expressed in transfected cells; host or cells: HuCCT1 (lentiviral transduction, doxycycline-inducible pCW57 vector)
T3 sequence (P53671 whole entry): as above
Protocol: To enable a more comprehensive and rapid evaluation of the synthesized PROTACs, we generated a stable, doxycycline-inducible HuCCT1 cell line that expressed an N-terminally fused EGFP–LIMK2 protein. […] The degradation activity of the synthesized PROTACs set was screened at five concentrations ranging from 1 nM to 1000 nM over 72 h using live-cell imaging (Figure E).
LIMK2 was cloned into pcDNA5-EGFP-NLS-P2A-mCherry-PTS1 (Addgene plasmid #87803) by replacing the NLS sequence with the LIMK2 sequence. pcDNA5-EGFP-NLS-P2A-mCherry-PTS1 was a gift from Andrea Musacchio. Subsequently, EGFP-[…]-P2A-mCherry was cloned into the lentiviral vector pCW57-MCS1-P2A-MCS2 (Hygro) (Addgene plasmid #80922) to generate pCW57-HygB-EGFP-LIMK2-P2A-mCherry. pCW57-MCS1-P2A-MCS2 (Hygro) was a gift from Adam Karpf.
HEK293T cells (ATCC, CRL-3216) were cultured in Dulbecco’s Modified Eagle’s Medium (DMEM), while HUCCT1 cells (ATCC, CRL-1997) were cultured in RPMI medium supplemented with 10% fetal bovine serum (FBS) and 1% penicillin/streptomycin (P/S) antibiotic mix (all from Sigma-Aldrich, St. Louis, Missouri, USA). Lentiviral particles were produced in HEK293T cells using pCW57-HygB-EGFP-LIMK2-[…]P2A-mCherry, pMD2.G, and psPAX2. HUCCT1 cells were transduced with lentivirus to express LIMK2.
Briefly, the cells were plated and propagated in 6-well plates overnight. The next day, transduction with viruses was performed. Two days later, transduced cells with pCW57-HygB-EGFP-LIMK2-P2A-mCherry plasmids were selected using 100 μg/mL Hygromycin B. After at least three passages, the cells were sorted for the same populations of RFP- and GFP-expressing cells using the SH800S Cell Sorter (Sony Biotechnology, San Jose, CA, USA). Stable pools of cells were maintained in the same medium used for selection.
To assess the turnover of LIMK2, we used the Incucyte S3 or XS5 live-cell imaging system and performed the assay as previously described. , Briefly, 2,000 HUCCT1 cells stably expressing EGFP-LIMK2-P2A-mCherry were seeded per well in a 384-well plate in 50 μL of RPMI medium supplemented with 10% fetal bovine serum (FBS) and 1% penicillin/streptomycin. Cells were incubated for 24 h before treatment. To induce LIMK2 expression, 1 μg/mL of doxycycline (Sigma-Aldrich, D9891–1G) was added at the time of seeding.
After 24 h, 50 μL of medium containing either 0.1% DMSO or the desired concentration of PROTACs was added. Fluorescence in three channels–GFP, RFP, and phase contrast (cell confluence)–was monitored every 2 h for 72 h using the Incucyte S3 or XS5 (Sartorius, Germany). LIMK2 turnover was quantified by calculating the ratio of total fluorescence intensity of RFP to GFP. Each time point represents the average ratio from three technical replicates.

HEK293T cells = assay: CellTiter-Glo 2.0 cell viability assay; format: cell-based, human; conditions: 24-h treatment, 25 nM to 20 µM
Protocol: The effects of the PROTAC on cell viability were determined using the CellTiter-Glo 2.0 Cell Viability Assay (Promega, G9241) following the manufacturer’s protocol. […] 40 μL of assay reagent was added and incubated for 10 min at RT. Filtered luminescence was measured using a PHERAstar plate reader (BMG Labtech), and data were analyzed using GraphPad Prism 9.

LIMK2 [3] = molecular target: T2, LIMK2; assay: Western blot of endogenous LIMK2 in HuCCT1 cells; format: cell-based; conditions: HuCCT1, 6 h treatment
Protocol: HuCCT1 cell line was cultured in Roswell Park Memorial Institute (RPMI) 1640 medium supplemented with GlutaMAX, 10% fetal bovine serum (FBS), and 1% penicillin/streptomycin. The cell line was maintained in an incubator with 5% CO2 at 37 °C. For the treatment, 3 × 10^5 cells were plated and treated with the compounds and DMSO as the control for 6 h. The cells were then lysed using RIPA buffer (50 mM Tris-HCl pH 7.4, 150 mM NaCl, 1% Triton X-100, 1% NaDOC, 0.1% SDS, 1 mM EDTA), freshly supplemented with protease and phosphatase inhibitor cocktails (Sigma-Aldrich, Darmstadt, Germany). After 1 h incubation on ice, the lysates were centrifuged for 30 min at […], and the protein-containing supernatant was collected. The protein concentrations were determined using Protein Assay Dye Reagent Concentrate (Bradford, Bio-Rad, Hercules, CA, USA) and Pre-Diluted Protein Assay Standards: Bovine Serum Albumin (BSA) Set (Thermo Fisher Scientific, Darmstadt, Germany). Then, equal amounts of protein was mixed with Roti-Load 1 dye (Carl Roth, Karlsruhe, Germany) and 4x Laemmli Buffer (Bio-Rad, Hercules, CA, USA), denatured at 95 °C, and run on NuPAGE 4–12% bis-Tris gels (Thermo Fisher Scientific). Proteins were blotted on methanol-activated PVDF Transfer Membranes (Thermo Fisher Scientific) using the wet transfer method with the transfer buffer (Thermo Fisher Scientific) and 20% methanol. Afterward, the membranes were blocked with 5% milk or 3% BSA in 0.1% TBS-T for 1 h at RT and incubated overnight at 4 °C with primary antibodies: GAPDH (catalog no. 2118, Cell Signaling Technology, MA, USA, 1:1000 dilution), LIMK1 (catalog no. 3842, Cell Signaling Technology, 1:1000 dilution), LIMK2 (catalog no. 3845, 1:500 dilution), phospho-Cofilin (catalog no. 3313, Cell Signaling Technology, 1:1000 dilution), Cofilin (catalog no. 5175, Cell Signaling Technology, 1:1000 dilution). Then, the membranes were washed with 0.1% TBS-T and incubated with secondary horseradish-peroxidase (HRP)-conjugated antibody for 2 h (catalog no. 7074, Cell Signaling Technology, 1:3000 dilution). The membranes were washed again with 0.1% TBS-T before they were developed using X-ray films (Fujifilm, Dusseldorf, Germany).

LIMK1 = molecular target: T4, LIMK1 (Homo sapiens, UniProt P53667); assay: Western blot of endogenous LIMK1 in HuCCT1 cells; format: cell-based; conditions: HuCCT1, 6 h treatment
T4 construct: host or cells: HEK293T
T4 sequence (P53667 whole entry): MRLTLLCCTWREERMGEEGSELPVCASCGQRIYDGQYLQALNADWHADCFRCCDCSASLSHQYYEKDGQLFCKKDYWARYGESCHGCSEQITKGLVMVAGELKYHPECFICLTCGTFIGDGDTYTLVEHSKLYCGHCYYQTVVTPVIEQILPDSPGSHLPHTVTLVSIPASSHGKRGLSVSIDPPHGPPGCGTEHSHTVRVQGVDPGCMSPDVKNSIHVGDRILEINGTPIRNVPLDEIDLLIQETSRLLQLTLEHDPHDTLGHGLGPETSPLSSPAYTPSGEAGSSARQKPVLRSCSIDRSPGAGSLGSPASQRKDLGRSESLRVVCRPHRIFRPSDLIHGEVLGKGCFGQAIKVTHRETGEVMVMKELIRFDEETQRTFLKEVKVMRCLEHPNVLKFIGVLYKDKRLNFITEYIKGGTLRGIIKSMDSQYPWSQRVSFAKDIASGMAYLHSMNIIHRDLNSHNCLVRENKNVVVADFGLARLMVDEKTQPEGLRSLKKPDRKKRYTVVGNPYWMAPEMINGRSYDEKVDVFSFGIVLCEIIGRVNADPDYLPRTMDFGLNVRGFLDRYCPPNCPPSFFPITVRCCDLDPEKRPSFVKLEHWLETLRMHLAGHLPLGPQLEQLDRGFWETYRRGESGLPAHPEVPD
Protocol: HuCCT1 cell line was cultured in Roswell Park Memorial Institute (RPMI) 1640 medium supplemented with GlutaMAX, 10% fetal bovine serum (FBS), and 1% penicillin/streptomycin. The cell line was maintained in an incubator with 5% CO2 at 37 °C. For the treatment, 3 × 10^5 cells were plated and treated with the compounds and DMSO as the control for 6 h. The cells were then lysed using RIPA buffer (50 mM Tris-HCl pH 7.4, 150 mM NaCl, 1% Triton X-100, 1% NaDOC, 0.1% SDS, 1 mM EDTA), freshly supplemented with protease and phosphatase inhibitor cocktails (Sigma-Aldrich, Darmstadt, Germany). After 1 h incubation on ice, the lysates were centrifuged for 30 min at […], and the protein-containing supernatant was collected. The protein concentrations were determined using Protein Assay Dye Reagent Concentrate (Bradford, Bio-Rad, Hercules, CA, USA) and Pre-Diluted Protein Assay Standards: Bovine Serum Albumin (BSA) Set (Thermo Fisher Scientific, Darmstadt, Germany). Then, equal amounts of protein was mixed with Roti-Load 1 dye (Carl Roth, Karlsruhe, Germany) and 4x Laemmli Buffer (Bio-Rad, Hercules, CA, USA), denatured at 95 °C, and run on NuPAGE 4–12% bis-Tris gels (Thermo Fisher Scientific). Proteins were blotted on methanol-activated PVDF Transfer Membranes (Thermo Fisher Scientific) using the wet transfer method with the transfer buffer (Thermo Fisher Scientific) and 20% methanol. […]

VHL:ELOB:ELOC, sequence (P40337 54-213 limits assumed, species assumed): as the sequence (P40337 54-213 limits assumed, species assumed) above
VHL:ELOB:ELOC, sequence (Q15370 whole entry partner, species assumed): as the sequence (Q15370 whole entry partner, species assumed, the tested form may be a part) above
VHL:ELOB:ELOC, sequence (Q15369 17-112 partner limits assumed, species assumed): as the sequence (Q15369 17-112 partner limits assumed, species assumed) above

In the case of `Cc1ncc(-c2ccc(CNC(=O)[C@@H]3C[C@@H](O)CN3C(=O)[C@@H](NC(=O)CCCc3cn(CCCCC(=O)Nc4ncc(-c5cc(C(F)F)nn5-c5c(Cl)cccc5Cl)s4)nn3)C(C)(C)C)cc2)s1` [23h], the Kd (VHL:ELOB:ELOC) is reported as over 1000 nM and the “higher affinity upon formation of ternary complex vs binary” value [1] is reported as 10 fold.

`Cc1ncc(-c2ccc(CNC(=O)[C@@H]3C[C@@H](O)CN3C(=O)[C@@H](NC(=O)CCCc3cn(CCCCCC(=O)Nc4ncc(-c5cc(C(F)F)nn5-c5c(Cl)cccc5Cl)s4)nn3)C(C)(C)C)cc2)s1` [23i] was tested, and the Kd (VHL:ELOB:ELOC) was over 1000 nM and the “higher affinity upon formation of ternary complex vs binary” value [1] was 10 fold.

With `Cc1c(OCc2cn(CCCCCC(=O)Nc3ncc(-c4cc(C(F)F)nn4-c4c(Cl)cccc4Cl)s3)nn2)cccc1N1CCC(=O)NC1=O` [22c] the IC50 (LIMK2 [2]) was 80 nM, the DC50 (EGFP–LIMK2; HuCCT1 EGFP–LIMK2 cells, live-cell kinetic assay over 72 h, read-out: DC50 (LIMK2 degradation)) was 13.7 nM and the “potency enhancement (DC50) relative to 21b” value (EGFP–LIMK2; vs 21b) was 2.4 fold.

Work on `Cc1ncc(-c2ccc(CNC(=O)[C@@H]3C[C@@H](O)CN3C(=O)[C@@H](NC(=O)CCc3cn(CCCCCC(=O)Nc4ncc(-c5cc(C(F)F)nn5-c5c(Cl)cccc5Cl)s4)nn3)C(C)(C)C)cc2)s1` [23f] yielded a Kd (VHL:ELOB:ELOC) of over 1000 nM.

With `Cc1c(OCc2cn(CCCCC(=O)Nc3ncc(-c4cc(C(F)F)nn4-c4c(Cl)cccc4Cl)s3)nn2)cccc1N1CCC(=O)N(C)C1=O` [THNAN69-NC] the cytotoxic effects (HEK293T cells) was “no cytotoxic effects”, the “EGFP–LIMK2 degradation (in words)” value (EGFP–LIMK2) was “no degradation of LIMK2” and the “LIMK2 degradation (Western blot)” value (LIMK2 [3]) was “did not induce any LIMK2 degradation”.

For `O=C1CCC(N2C(=O)c3cccc(OCc4cn(CC(=O)Nc5ncc(-c6cc(C(F)F)nn6-c6c(Cl)cccc6Cl)s5)nn4)c3C2=O)C(=O)N1` (stereo not drawn) [21a], the “LIMK1 degradation (Western blot)” value (LIMK1) was “did not degrade either isoform” and the “LIMK2 degradation (Western blot)” value (LIMK2 [3]) was “did not degrade either isoform”.

`Cc1ncc(-c2ccc(CNC(=O)[C@@H]3C[C@@H](O)CN3C(=O)[C@@H](NC(=O)c3cn(CCCCCC(=O)Nc4ncc(-c5cc(C(F)F)nn5-c5c(Cl)cccc5Cl)s4)nn3)C(C)(C)C)cc2)s1` [23c] was tested, and the “EGFP–LIMK2 degradation (in words)” value (EGFP–LIMK2) was “moderate LIMK2 degradation” and the “LIMK2 degradation (Western blot)” value (LIMK2 [3]) was “modest LIMK2 degradation at 1 μM”.
